Source: paper PMC10122656, “Siglec-6 mediates the uptake of extracellular vesicles through a noncanonical glycolipid binding pocket” (Nature Communications, 2023)
Substitutions are numbered along the chain they refer to. Several values for one entry are separate records, joined by “and”; a condition that tells them apart may be missing. Identical values can stand only once.

What was measured:
Test in all cases: Cell assay (liposome/EV binding, flow cytometry)
Format in all cases: cell-based
Siglec-9 WT CHO cells = target: T1, Siglec-9 WT CHO cells (Homo sapiens, UniProt Q9Y336); conditions: for log10(MFI AF647) of GLL relative to log10(MFI AF647) of the same GLL against UT CHO cells (Fig. 2a): Sig-9 WT†, † after treatment of cells with neuraminidase, 3 mol% ganglioside liposomes, replicates
T1 construct: expressed in transfected cells
T1 sequence (Q9Y336 18-463): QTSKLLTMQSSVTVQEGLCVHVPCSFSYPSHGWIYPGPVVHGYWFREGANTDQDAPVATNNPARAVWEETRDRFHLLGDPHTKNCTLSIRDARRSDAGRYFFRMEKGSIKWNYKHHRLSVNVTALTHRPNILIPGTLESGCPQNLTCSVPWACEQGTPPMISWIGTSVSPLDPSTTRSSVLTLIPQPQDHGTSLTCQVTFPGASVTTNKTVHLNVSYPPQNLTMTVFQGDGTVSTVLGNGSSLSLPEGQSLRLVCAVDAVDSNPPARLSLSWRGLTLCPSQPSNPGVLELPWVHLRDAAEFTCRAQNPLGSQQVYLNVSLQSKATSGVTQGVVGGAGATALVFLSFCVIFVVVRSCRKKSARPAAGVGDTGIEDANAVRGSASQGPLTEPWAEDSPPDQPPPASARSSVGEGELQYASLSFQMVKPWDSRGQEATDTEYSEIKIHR
Protocol: (§1) Stock lipids (DSPC, Cholesterol, PEG45–DSPE) solutions were prepared by solvating the lipids in chloroform. An appropriate volume of each lipid solution was transferred to a glass test tube to reach the desired mol% of the component. The chloroform was then removed under N2 gas to yield a lipid thin film. Once dry, 100 µL of DMSO was added to the lipid-containing test tube and then the functional lipids (ganglioside, AF647–PEG45–DSPE, Siglec ligand–PEG45–DSPE, pHrodo–PEG45–DSPE, NGL) was added from their respect DMSO stock solution. The lipid mixture was then stored at −80 °C until completely frozen at which point excess DMSO was removed via lyophilization. Dry lipids were then stored at −80 °C until they were extruded. Lipid suppliers can be found in Supplementary Table 4.
(§2) Dry lipids were then hydrated in 1 mL of PBS. The lipids were then sonicated in a bath sonicator in a cycle of 1 min on, 5 min off for a total of five cycles. Liposomes were then extruded using an Avanti mini extruder first using an 800 nm filter and then a 100 nm filter yielding liposomes that were 130 ± 35 nm (Supplementary Table 5) measured using a Malvern Panalytical Zetasizer Nano S. Liposomes were stored at 4 °C.
(§3) 200,000 cells/well were plated into a 96-well U-bottom microplate and centrifuged at 300 × g for 5 min. The cells were then resuspended in 50 µL of 50 µM liposome/50 µg/mL (protein concentration) of EV solution in DMEM F12 5% FBS and incubated at 37 °C for 30 min. Excess liposomes were then removed via centrifuged at 300 × g for 5 min followed by washing the cells with FACS solution. The cells were then resuspended in (1:250 V/V) anti-Siglec-flow buffer (1% V/V FBS, 500 µM, EDTA Hank’s Balanced Salt Solution pH 7.4), solution and left to rest on ice for 30 min. The cells were then centrifuged again at 300 × g for 5 min and the cells were resuspended in FACS buffer solution and were then ready for analysis by flow cytometry. Information regarding antibody clone, catalog number supplier, label isotype, and dilution can be found in Supplementary Table 6. The Siglec-positive cells were gated on for liposome-binding analysis (Supplementary Fig. 1b).
(§4) Flow cytometry measurements were collected on a 5-laser Fortessa X-20 (BD Bioscience). All the resulting data were analyzed using FlowJo (10.5.3) software (BD Biosciences).
(§5) Cells were harvested and resuspended in complete media with either Neuraminidase A or S. The cells were then placed in a 37 °C shaking incubator for 1 h. The cells were then washed with complete media and then the liposome binding assay was performed as described above.

Siglec-4 WT CHO cells = target: T2, Siglec-4 WT CHO cells (Homo sapiens, UniProt P20916); conditions: Sig-4 WT†; † after treatment of cells with neuraminidase; 3 mol% ganglioside liposomes; replicates
T2 construct: expressed in transfected cells
T2 sequence (P20916 20-626): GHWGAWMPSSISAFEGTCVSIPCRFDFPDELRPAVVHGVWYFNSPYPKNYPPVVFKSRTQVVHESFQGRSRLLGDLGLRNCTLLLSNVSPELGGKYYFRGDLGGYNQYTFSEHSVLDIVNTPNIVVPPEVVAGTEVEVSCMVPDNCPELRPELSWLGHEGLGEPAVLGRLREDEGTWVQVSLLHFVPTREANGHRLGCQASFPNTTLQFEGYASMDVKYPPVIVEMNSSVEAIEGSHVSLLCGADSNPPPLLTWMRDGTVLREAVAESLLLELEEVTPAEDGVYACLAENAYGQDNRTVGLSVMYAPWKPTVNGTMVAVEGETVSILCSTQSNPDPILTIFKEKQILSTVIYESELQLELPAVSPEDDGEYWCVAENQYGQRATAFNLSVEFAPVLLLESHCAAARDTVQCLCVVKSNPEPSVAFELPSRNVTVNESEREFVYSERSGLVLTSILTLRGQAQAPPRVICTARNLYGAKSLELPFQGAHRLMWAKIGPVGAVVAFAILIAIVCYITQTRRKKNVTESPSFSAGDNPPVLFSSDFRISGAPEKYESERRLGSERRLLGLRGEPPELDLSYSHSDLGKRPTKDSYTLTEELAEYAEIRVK
Protocol: as §1, §2, §3, §4, §5

Siglec-5 WT CHO cells = target: T3, Siglec-5 WT CHO cells (Homo sapiens, UniProt O15389); conditions: for log10(MFI AF647) of GLL relative to log10(MFI AF647) of the same GLL against UT CHO cells (Fig. 2a): Sig-5 WT†, † after treatment of cells with neuraminidase, 3 mol% ganglioside liposomes, replicates; for GLL binding to Siglec-5 (in words): cell assay, optimized liposomal formulation
T3 construct: expressed in transfected cells
T3 sequence (O15389 17-551): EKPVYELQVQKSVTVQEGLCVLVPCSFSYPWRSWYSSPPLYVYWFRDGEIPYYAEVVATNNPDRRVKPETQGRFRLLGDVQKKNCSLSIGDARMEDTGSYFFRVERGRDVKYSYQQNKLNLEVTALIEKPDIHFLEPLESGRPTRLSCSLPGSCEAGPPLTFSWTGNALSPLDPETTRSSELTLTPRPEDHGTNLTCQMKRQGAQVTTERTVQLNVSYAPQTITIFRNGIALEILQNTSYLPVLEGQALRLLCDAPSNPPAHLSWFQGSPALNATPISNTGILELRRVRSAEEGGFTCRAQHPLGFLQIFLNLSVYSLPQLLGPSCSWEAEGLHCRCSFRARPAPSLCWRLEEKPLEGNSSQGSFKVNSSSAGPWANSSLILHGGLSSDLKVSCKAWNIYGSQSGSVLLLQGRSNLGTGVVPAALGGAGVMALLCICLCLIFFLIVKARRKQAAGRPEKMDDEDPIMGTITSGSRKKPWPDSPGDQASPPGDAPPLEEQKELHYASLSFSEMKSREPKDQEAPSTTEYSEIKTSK
Protocol: as §1, §2, §3, §4, §5

Siglec-5 R119A CHO cells = target: T4, Siglec-5 R119A CHO cells (Homo sapiens, UniProt O15389, R119A); conditions: Sig-5 R119A†; † after treatment of cells with neuraminidase; 3 mol% ganglioside liposomes; replicates
T4 construct: expressed in transfected cells
T4 sequence (O15389 17-551 R119A): T3 sequence (O15389 17-551) with R103A
Protocol: as §1, §2, §3, §4, §5

Row | Substance | log10(MFI AF647) of GLL relative to log10(MFI AF647) of the same GLL against UT CHO cells (Fig. 2a) (Siglec-9 WT CHO cells) | log10(MFI AF647) of GLL relative to log10(MFI AF647) of the same GLL against UT CHO cells (Fig. 2a) (Siglec-4 WT CHO cells) | log10(MFI AF647) of GLL relative to log10(MFI AF647) of the same GLL against UT CHO cells (Fig. 2a) (Siglec-5 WT CHO cells) | log10(MFI AF647) of GLL relative to log10(MFI AF647) of the same GLL against UT CHO cells (Fig. 2a) (Siglec-5 R119A CHO cells) | GLL binding to Siglec-5 (in words) (Siglec-5 WT CHO cells) | GLL binding to Siglec-9 (in words) (Siglec-9 WT CHO cells; cell assay, optimized liposomal formulation)
1 | GD1a | 0.29 (2×) and 0.32 | 1.02 and 0.9 and 0.95 and 0.88 | 0.3 and 0.33 and 0.29 | -0.25 and -0.02 and -0.03 and 0.01 |  | 
2 | GD1b | 0.27 (2×) and 0.29 | 0.9 and 0.93 and 0.96 and 0.92 | 0.26 and 0.29 and 0.23 | 0.17 and -0.03 and -0.02 and 0.04 | novel interactions were observed | 
3 | GD3 | 0.22 and 0.21 and 0.23 | 0.51 (2×) and 0.52 and 0.5 | 0.28 and 0.26 and 0.19 | -0.21 (2×) and -0.15 (2×) |  | 
4 | GM1 | 0.3 and 0.31 (2×) | 0.57 (2×) and 0.53 and 0.49 | 0.35 (2×) and 0.26 | -0.32 and -0.33 and -0.29 and -0.28 | novel interactions were observed | 
5 | GM2 | 0.28 and 0.29 and 0.26 | 0.08 (2×) and -0.03 and -0.04 | 0.12 and 0.11 and 0.15 | -0.1 and -0.09 (2×) and -0.11 |  | novel interactions were observed
6 | GM3 | -0.03 and -0.01 (2×) | -0.11 (2×) and -0.14 and -0.2 | -0.05 (2×) and -0.08 | -0.22 (2×) and -0.21 and -0.24 |  | 
7 | GM4 | 0.19 (2×) and 0.21 | -0.3 and -0.1 and -0.11 and -0.09 | 0.08 (2×) and 0.05 | -0.2 (3×) and -0.21 |  | 
8 | GQ1b | 0.2 and 0.23 and 0.25 | 0.13 and 0.12 and 0.1 and 0.11 | 0.86 (2×) and 0.94 | -0.2 and -0.19 and -0.12 and -0.08 |  | 
9 | GT1b | 0.55 and 0.46 and 0.54 | 1.15 and 1 and 1.11 and 1.1 | 0.58 and 0.64 and 0.55 | -0.05 and -0.03 and 0.02 and 0.1 |  | 
